# Source: PubChem BioAssay (NCI)
# Values joined by “and” are separate entries in the source; they are usually repeats but may differ in a detail not shown here. Equal values may be shown once.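 Where inhibition never reached the appropriate level, the endpoint shown equals the highest concentration tested. Otherwise, values were interpolated linearly from a five-concentration, 48-hour dose response in 96-well plates. GI50 = concentration required for 50% inhibition of growth. TGI: total growth inhibition.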
# How the values were obtained:
# Assay in all cases: DTP human tumour cell line panel, 48 h
# [1] = test system: SF-539 CNS
# [2] = test system: OVCAR-5 ovarian
# [3] = test system: UACC-257 melanoma
# [4] = test system: K-562 leukemia
# [5] = test system: MCF7 breast
# [6] = test system: PC-3 prostate
# [7] = test system: UO-31 renal
# [8] = test system: NCI-H460 lung
# [9] = test system: HS 578T breast
# [10] = test system: MOLT-4 leukemia
SMILES,GI50 [1],TGI [1],GI50 [2],TGI [2],GI50 [3],TGI [3],GI50 [4],TGI [4],GI50 [5],TGI [5],GI50 [6],TGI [6],GI50 [7],TGI [7],GI50 [8],TGI [8],GI50 [9],TGI [9],GI50 [10],TGI [10]
C#CCOc1ccc2ncnc(Nc3ccc(NC(=O)C=C)cc3)c2c1,9.76 µM,39.6 µM,> 100 µM,> 100 µM,56.9 µM,> 100 µM,3.38 µM,23.6 µM,2.98 µM,> 100 µM,70.4 µM,> 100 µM,11.6 µM,44.4 µM,> 100 µM,> 100 µM,62 µM,> 100 µM,28.4 µM,> 100 µM
Cn1ncc(Cl)c1-c1cc(C(=O)N[C@H](CN)Cc2ccc(F)c(F)c2)oc1Cl,0.161 µM and 0.121 µM,3.22 µM and 2.14 µM,0.426 µM and 2.45 µM,9.12 µM and > 10 µM,1.64 µM and 1.21 µM,7.21 µM and 3.16 µM,2.34 µM and 3.01 µM,7.35 µM and > 8.68 µM,0.257 µM and 0.139 µM,9.66 µM and 2.89 µM,0.263 µM and 0.133 µM,9.07 µM and > 6.73 µM,0.97 µM and 0.36 µM,11.7 µM and > 7.68 µM,0.152 µM and 0.163 µM,13 µM and > 10 µM,0.0905 µM and 0.126 µM,2.08 µM and 2.86 µM,0.0931 µM and 0.1 µM,2.25 µM and > 6.73 µM
N=c1c2c(=N)n3c(nc2nc2n1-c1ccccc1Sc1ccccc1-2)sc1cc(Cl)ccc13,5.07 µM,30.6 µM,7.55 µM,38.9 µM,2.59 µM,54.8 µM,1.62 µM,> 100 µM,2.21 µM,> 100 µM,2.64 µM,> 100 µM,1.29 µM,7.68 µM,1.77 µM,10.3 µM,1.78 µM,7.01 µM,2.33 µM,> 100 µM
O=[N+]([O-])c1cccc(C2CC(c3ccccc3)=Nc3ccccc3S2)c1 (stereo not given),17.2 µM,31.3 µM,13.9 µM,28.1 µM,21.6 µM,61 µM,3.76 µM,> 100 µM,2.06 µM,13.3 µM,10.1 µM,28.7 µM,9.61 µM,21.9 µM,20.5 µM,48.7 µM,20 µM,> 100 µM,7.44 µM,> 100 µM
COc1cc2cc(Oc3ccc(NC(=O)Nc4ccc(Cl)c(Cl)c4)cc3)c(C)nc2cc1OC,5.18 µM,22.3 µM,10.1 µM,34.3 µM,2.31 µM,6.28 µM,3.33 µM,> 100 µM,2.89 µM,13.8 µM,1.53 µM,5.13 µM,3.44 µM,12.6 µM,2.46 µM,10.1 µM,3.54 µM,9.68 µM,3.02 µM,22.8 µM
CC[n+]1c(/C=C/C=C2\N(C)c3ccccc3C2(C)C)sc2ccccc21,4 µM,7.5 µM,4.82 µM,11.7 µM,4.64 µM,9.02 µM,4.34 µM,9.43 µM,4.42 µM,10.4 µM,4.29 µM,11.3 µM,3.55 µM,7.26 µM,4.5 µM,8.93 µM,5.63 µM,20.1 µM,4.44 µM,11.6 µM
COc1ccc(/C(C#N)=C2C=C/C(=N/O)c3ccccc3\2)cc1,0.2 µM,0.67 µM,2.96 µM,16.5 µM,10.5 µM,22.7 µM,0.105 µM,14.3 µM,0.181 µM,14.1 µM,0.322 µM,15.7 µM,0.593 µM,15.3 µM,0.31 µM,1.23 µM,0.258 µM,6.33 µM,0.357 µM,12.6 µM
COC(=O)[C@H]1CCCN1C(=O)[C@H]1CCCN1C(=O)[C@H](Cc1c[nH]c2ccccc12)NC(=S)Nc1cc(C(F)(F)F)cc(C(F)(F)F)c1,3.93 µM,30.4 µM,2.95 µM,26.8 µM,5.87 µM,> 100 µM,5.71 µM,> 100 µM,2.99 µM,> 100 µM,3.47 µM,> 100 µM,18.5 µM,> 100 µM,3.46 µM,> 100 µM,6.1 µM,> 100 µM,4.88 µM,> 100 µM
CCN(CC)Cc1cc2[nH]c3c4ccc(Cl)cc4ncc3c2cc1OC,1.61 µM and 1.78 µM,2.97 µM and 3.25 µM,12.4 µM and 14.5 µM,25.9 µM and 27.5 µM,2.79 µM and 1.82 µM,6.92 µM and 3.45 µM,3.39 µM and 1.89 µM,> 20.5 µM and 4.28 µM,2.17 µM and 1.61 µM,8.37 µM and 3.29 µM,3.18 µM and 1.99 µM,16 µM and 6.8 µM,4.25 µM and 1.59 µM,8.93 µM and 3.83 µM,1.99 µM and 2.19 µM,4.55 µM and 5.11 µM,2.29 µM and 2.54 µM,7.09 µM and 8.34 µM,2.24 µM and 2.56 µM,> 21.8 µM and 6.8 µM
Cc1cc(Cl)nc(N(CCCNc2ccnc3cc(Cl)ccc23)Cc2ccco2)n1,2.33 µM,6.38 µM,3.12 µM,22.6 µM,2.21 µM,5.76 µM,1.4 µM,5.86 µM,1.81 µM,6.1 µM,1.87 µM,6 µM,1.08 µM,5.93 µM,2.04 µM,6.2 µM,2.13 µM,8.1 µM,1.93 µM,6.46 µM
Cn1cc(C2=C(c3cn(CCCCCSC(=N)N)c4ccccc34)C(=O)NC2=O)c2ccccc21,3.51 µM,6.77 µM,4.48 µM,8.26 µM,4.01 µM,7.47 µM,1.49 µM,5.31 µM,1.22 µM,4.97 µM,2.68 µM,6.02 µM,3.62 µM,7.29 µM,3.73 µM,7.75 µM,2.24 µM,11.1 µM,2.06 µM,6.25 µM
O=C1c2ccccc2C(=O)c2c(OCCOCCO)cccc21,–,> 100 µM,–,> 100 µM,–,> 100 µM,–,> 100 µM,–,> 100 µM,–,> 100 µM,–,> 100 µM,–,> 100 µM,–,99.7 µM,–,> 100 µM
